Reference: US20110091473A1, “NOVEL ANTIBODY THERAPIES” (GENMAB A/S, priority 2007, published 2011)

Assays:
[1] = test system: freshly isolated human lymphoma B cells; experiment: Rituximab-mediated CDC of freshly isolated human lymphoma B cells, MTT assay; assay type: cell-based; details: 10 mg/ml MβCD 30 minutes; 400 μg/ml rituximab, 10% serum
Procedure: To extend these observations the influence of cholesterol depletion was studied in freshly isolated human lymphoma B cells. Tumor cells of three mantle cell lymphomas and a small B cell lymphoma were isolated out of bone marrow (10 ml) aspirated from the hip. The cell suspension was diluted twice with PBS (final volume 20 ml). 3 ml of Histopaque-1077 (Sigma Aldrich) was pipetted into two conical centrifuge tubes. 10 ml of diluted bone marrow was slowly layered on the top of Histopaque layer. Probes were centrifuged (400 g, 15 minutes, 25° C.) without brake. The white blood cell ring and plasma were isolated and washed twice with PBS. The leucocyte pellet was resuspeneded in 5 ml medium (RPMI or OptiMEM) and counted in a Bürker chamber using Turk dye. Cells were incubated with either diluent or MβCD (10 mg/ml) for 30 minutes. Treated cells were analyzed for their capacity to bind CD20 mAb as well as sensitivity for rituximab-mediated CDC induction.
For the rituximab-mediated CDC human CD20-positive lymphoma B cells were incubated with either diluent or 10 mg/ml MβCD for 30 minutes. […] The cytotoxic effects were measured in a MTT assay.

[2] = test system: CD20 on freshly isolated B cells; experiment: CD20/CD21 MFI ratio on freshly isolated B cells of atorvastatin-treated patients; assay type: in vivo, human; details: day 3 vs day 0 after single dose 80 mg atorvastatin; CD20 detected with the named mAb
Description: CD21 is a protein expressed by B cells. Its expression has been shown unaffected upon cholesterol depletion of a B cell line (Daudi) and for freshly isolated B cell enriched cell population of two independent donors (FIG. 26). Therefore, CD21 mAb binding is considered as an indicator for the amount of B cells present per staining. The MFI of CD20 mAb and CD21 mAb binding was identified by gating on viable cells in the lymphogate (FSC vs SSC), and subsequently on CD21+ cells when analyzing the MFI for the CD20 mAb. In order to be able to correlate the CD20 expression measured in between days CD20 mAb binding was quantitated relative to CD21 mAb binding within the same staining by calculating the ratio of MFI of CD20/CD21 mAb.
To determine CD20 and CD21 expression on B cells of hypercholesterolemic patients treated with atorvastatin PBMC were isolated out of whole blood drawn on day 0 (pre-treatment) and day 3 after treatment (as described in Example 7). Freshly isolated B cells were stained with different FITC-conjugated CD20 mAbs 2F2, 11B8, B1 (GlaxoSmithKline, Stevenage, United Kingdom) and PE-conjugated CD21 mAb (B-Ly4, BD Pharmingen, Franklin Lakes, N.J.) by 30 minutes incubation at room temperature in the dark. Cells were washed and mAb binding intensity (MFI) was analysed using a FACS Calibur (Becton Dickinson, Breda, The Netherlands).

Substance: rituximab: anti-CD20 antibody Rituxan/MabThera, type I
- rituximab-mediated CDC [1]: significantly decreased

Substance: 2F2: human anti-CD20 mAb, VH SEQ ID NO:1, VL SEQ ID NO:2, disclosed in WO 2004/035607
- average decrease in CD20/CD21 MFI ratio [2]: 18%
